Experimental data reported in US20230219951A1, “PYRIDINE-PYRIMIDINE DERIVATIVE, PREPARATION METHOD THEREFOR AND PHARMACEUTICAL USE THEREOF” (Jiangsu Hengrui Pharmaceuticals Co., Ltd., priority 2020, published 2023).

Columns and labels:
[1] = Pharmacokinetic evaluation in mice; format: in vivo; details: female, mouse, plasma, po, C57 mice, intragastric administration, 2 mg/kg
Protocol: (§1) The drug concentration in the plasma of the test animals (mice) at different time points after intragastric administration (i.g.) of compound 18-p1 was determined by using an LC/MS/MS method. The pharmacokinetic behavior of the compound of the present disclosure in mice was studied and its pharmacokinetic profile was evaluated.
Nine C57 mice, female, purchased from Beijing Vital River Laboratory Animal Technology Co., Ltd., with animal production license number of SOCK (Shanghai) 2017-0005.
An amount of compound 18-p1 was weighed, dissolved with 5% by volume of DMSO and 5% tween 80 (Shanghai Titan Scientific Co., Ltd.), and then prepared into a 0.1 mg/mL clear solution with 90% normal saline.
Intragastric administration: the mice were intragastrically administered at a dose of 2.0 mg/kg and a volume of 20.0 mL/kg.
(§2) The compound 18-p1 was administered intragastrically to mice, and 0.1 mL of blood was collected from the orbit before administration and 0.25 h, 0.5 h, 1.0 h, 2.0 h, 4.0 h, 6.0 h, 8.0 h, 11.0 h and 24.0 h after administration. The blood was placed in an EDTA-K2 anticoagulation tube and centrifuged at 10,000 rpm for 1 min (4° C.), and plasma was separated out within 1 h and then stored at −20° C. for testing. The process from blood sampling to centrifugation was performed under an ice bath.
The content of the test compounds at different concentrations in plasma of mice after administration was determined: 10 μL of plasma of mice at each time point after administration was taken, and 200 μL of methanol (containing an internal standard solution camptothecin, 100 ng/mL) was added; the mixture was vortexed for 1 min, and centrifuged for 10 min (18,000 r/min). 3 μL of supernatant was taken from the plasma sample for LC/MS/MS analysis.

[2] = Pharmacokinetic evaluation in nude mice; format: in vivo; details: female, mouse, plasma, po, BALB/C nude mice, intragastric administration, 50 mg/kg
Protocol: as §1, with “test animals (nude mice) at different” for “test animals (mice) at different”, “disclosure in nude mice was” for “disclosure in mice was”
Nine BALB/C nude mice, female, intragastric administration, purchased from Beijing Vital River Laboratory Animal Technology Co., Ltd., with animal production license number of SCXK (Shanghai) 2017-0005.
An amount of compound 18-p1 was weighed, dissolved in 0.5% by volume of CMCNa, and then prepared into a 2.5 mg/mL clear solution with 99.5% normal saline.
The nude mice were intragastrically administered at a dose of 50.0 mg/kg and a volume of 20.0 mL/kg.
as §2, with “intragastrically to nude mice, and” for “intragastrically to mice, and”
The content of the test compounds at different concentrations in plasma of nude mice after administration was determined: 25 μL of plasma of nude mice at each time point after administration was taken, and 200 μL of acetonitrile (containing 50 μL of internal standard solution camptothecin, 100 ng/mL) was added; the mixture was vortexed for 5 min, and centrifuged for 10 min (4000 r/min). 0.5 μL of supernatant was taken from the plasma sample for LC/MS/MS analysis.

H358 cells = test: Inhibition of proliferation of H358 cells (CellTiter-Glo 3D); format: cell-based; details: Homo sapiens, NCI-H358, low adsorption plate, 120 h
Method in brief: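 H358 cells at 1500/well in low-adsorption plates (RPMI, 10% FBS), centrifuged and grown overnight, then exposed 120 h at 37 °C to 9 concentrations, 5-fold dilutions from 10 μM; 0.1% DMSO blank. Luminescence read with CellTiter-Glo 3D; IC50 calculated from the curves.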

[3] = read-out: Apparent distribution volume Vz/F
[4] = read-out: Area under curve AUC0-t
[5] = read-out: Half-life T½ (converted)
[6] = read-out: Plasma concentration Cmax

- Vd/F [1, 3]: 23.4 L/kg
- AUC(0-t) [1, 4]: 146 ng·h/mL
- CL/F ([1]; read-out: Clearance CLz/F): 225 mL/min/kg
- half-life [1, 5]: 1.2 h
- Cmax [1, 6]: 56.7 ng/mL
- Vd/F [2, 3]: 16.6 L/kg
- AUC(0-t) [2, 4]: 5150 ng·h/mL
- CL/F ([2]; read-out: Clearance CLz/F): 160 mL/min/kg
- half-life [2, 5]: 1.2 h
- Cmax [2, 6]: 1560 ng/mL
- IC50 (H358 cells): 72 nM
Compound: Cc1nc(N[C@H](C)c2cccc(C(F)F)c2F)c2cc([C@]3(O)CC[C@@H](O)CC3)c(=O)[nH]c2n1 [Example 18-p1, 4-(((R)-1-(3-(difluoromethyl)-2-fluorophenyl)ethyl)amino)-6-((1s,4S)-1,4-dihydroxycyclohexyl)-2-methylpyrido[2,3-d]pyrimidin-7(8H)-one]
